pKi: −log10 of the molar value.

The record followed here is patent US5798350A, “Dopamine receptor ligands” (Allelix Biopharmaceuticals, Inc., priority 1996, dated 1998).

Assay [1] has as its target T1, human D4 receptor (D4.2 sub-type) (Homo sapiens, UniProt P21917, DEL265-296).
T1 construct: expressed in transfected cells; host or cells: HEK 298 (human embryonic kidney) cells, [sic]; homogenate of stably transfected cells
T1 sequence (P21917 with tags, fused parts or gaps DEL265-296): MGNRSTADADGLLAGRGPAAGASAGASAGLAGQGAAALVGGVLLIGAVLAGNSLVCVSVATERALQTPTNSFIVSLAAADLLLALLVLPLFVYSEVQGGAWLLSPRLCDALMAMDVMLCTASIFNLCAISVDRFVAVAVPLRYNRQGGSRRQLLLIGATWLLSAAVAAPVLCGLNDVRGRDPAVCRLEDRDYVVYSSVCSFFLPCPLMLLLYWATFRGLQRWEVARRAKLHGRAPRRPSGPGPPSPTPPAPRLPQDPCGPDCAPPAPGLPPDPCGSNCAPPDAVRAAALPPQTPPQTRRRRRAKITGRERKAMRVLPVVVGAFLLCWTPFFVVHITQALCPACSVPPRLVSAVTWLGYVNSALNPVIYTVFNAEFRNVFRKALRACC
In words: D4 receptor binding, displacement of 3H-spiperone. To be noted: for pKi: human D4 receptor, 3H-spiperone 0.25 nM. The procedure:
(§1) The potency of the test compound to reduce ^3 H-spiperone binding directly correlated to its binding affinity for the receptor.
The cells were then centrifuged in a Sorval centrifuge for 10 minutes, 5000 rpm (GS3 rotor) and the pellets quickly frozen in liquid nitrogen and stored at -80° C. until used in binding assay. When used in the assay, cells were thawed on ice for 20 minutes and then 10 mL of incubation buffer (50 mM Tris, 1 mM EDTA, 4 mM MgCl2, 5 mM KCl, 1.5 mM CaCl2, 120 mM NaCl, pH7.4) was added. […] Concentration of receptor protein was determined using the Pierce BCA assay.
(§2) Total Spiperone Binding Assay
(§3) The tubes were vortexed and incubated at room temperature for 90 minutes. The binding reaction was stopped by filtering using a Brandell Cell Harvester. The samples were filtered under vacuum over glass fibre filters (Whatman GF/B) presoaked for 2 hours in 0.3% polyethyleneimine (PEI) in 50 mM Tris buffer (pH7.4). The filters were then washed 3 times with 5 mL ice cold 50 mM Tris buffer (pH7.4). Individual filter disks were put in scintillation vials (Biovials, Bechman). Ready Protein Plus liquid scintillant (5 mL, Beckman) was added and the vials counted by liquid scintillation spectrophotometry (Beckman LSC 6500) after equilibrating for three hours at room temperature to determine total binding (BT).
Non-Specific Binding Assay for D4
The tubes were vortexed and incubated at room temperature for 90 minutes at which time the binding reaction was stopped by filtering. The filters were washed and counted using the same procedure as in the total binding assay described above to give the non-specific binding value (NSB).
(§4) Displacement Binding Assay
(§5) The incubation was started by the addition to 12×75 mm polypropylene tubes 500 μl (50 μg protein) membrane homogenate to a solution of 400 μl incubation buffer, 100 μl (0.25 final conc.) ^3 H-spiperone (90Ci/mmol, Amersham, diluted in borosilicate glass vial to) and […] of test compound that was prepared from 1 mM stock dissolved in DMSO and stored at -20° C. in polypropylene cryogenic storage vials until dilution in incubation buffer in borosilicate glass vials. The tubes were vortexed and incubated at room temperature for 90 minutes at which time the binding reaction was stopped by filtering. The filters were washed and counted using the same procedure as in the total binding assay described above to give the displacement binding value (BD).
IC50 was determined from an inhibition response curve, logit-log plot of %B/BO vs concentration of test compound.
(§6) Ki was calculated by the Cheng and Prustoff transformation: […]
(§7) where [L] is the concentration of ^3 H-spiperone used in the assay and KD is the to dissociation constant of ^3 H-spiperone determined independently under the same binding conditions.

For assay [2], the target named is T2, human D2 receptor (short isoform) (Homo sapiens, UniProt P14416).
T2 construct: membrane homogenate, 3H-spiperone displacement
T2 sequence (P14416 with tags, fused parts or gaps DEL242-270): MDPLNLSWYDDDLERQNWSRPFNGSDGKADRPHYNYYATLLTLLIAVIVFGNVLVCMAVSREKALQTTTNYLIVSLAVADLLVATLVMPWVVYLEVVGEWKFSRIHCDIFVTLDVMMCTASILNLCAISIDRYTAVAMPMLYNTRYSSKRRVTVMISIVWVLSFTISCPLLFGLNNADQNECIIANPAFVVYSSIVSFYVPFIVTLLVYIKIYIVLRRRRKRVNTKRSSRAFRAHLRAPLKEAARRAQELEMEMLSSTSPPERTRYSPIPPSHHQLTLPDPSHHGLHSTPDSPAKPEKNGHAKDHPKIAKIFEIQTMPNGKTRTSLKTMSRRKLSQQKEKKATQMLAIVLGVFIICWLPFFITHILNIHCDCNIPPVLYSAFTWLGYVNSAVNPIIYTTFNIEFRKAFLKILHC
In words: D2 receptor binding, displacement of 3H-spiperone (GH4C1 cells), for D2/D4 selectivity. The conditions noted are these: for D2/D4: D4 selectivity, ratio D2/D4. The procedure:
as §1
GH4 C1 (rat pituitary) cells stably transfected with the human D2 receptor (short isoform) were grown in CO2 independent media in roller bottles (1500 cm^2) for 10 days. 100 μM ZnSO4 was added to the cells (the D2 promoter being zinc inducible). After 16 hours, fresh media was added to allow the cells to recover for 24 hours. The cells were harvested using versene and then centrifuged in a Sorval centrifuge for 10 minutes, at 5000 rpm (GS3 rotor). Pellets were quickly frozen in liquid nitrogen and stored at -80° C. until used in the binding assays. When used in the assay, cells were thawed on ice for 20 minutes. […] 10 mL of incubation buffer was added to the pellets which were then vortexed, resuspended and homogenized with a Kinematica CH-6010 Kriens-LU homogenizer for 15 seconds at setting 7. The receptor protein concentration was determined using the Pierce BCA assay.
as §2
as §3, with “The incubation was started by the addition of 500 μl (50 μg protein) membrane homogenate to a solution of 900 μl incubation buffer and 100 μl (0.25 nM final conc.) ^3 H-spiperone (90 Ci/mmol Amersham diluted in borosilicate glass vial) in 12×75 mm polypropylene tubes. The tubes” for “The tubes”
Non-Specific Binding Assay for D2
This assay employed the same procedures as the non-specific binding assay for D4 with the exception that 2 μM (final conc.) of (-) sulpiride (Research Chemicals Inc.) was used in place of dopamine.
as §4, §5
Specific binding in the absence of test compound (BO) was the difference of total binding (BT) minus non-specific binding (NSB) and similarly specific binding (in the presence of test compound) (B) was the difference of displacement binding (BD) minus non-specific binding (NSB). IC50 was determined from an inhibition response curve, logit-log plot of %B/BO vs concentration of test compound.
as §6, §7
A general note: Displacement assays read how much labelled ligand stays bound in the presence of the test substance.

[3] abbreviates: compared with corresponding 4-methyl piperazine compound.

As a reminder, the pKi is −log10 of the Ki, conventionally taken in molar units. Read a low pKi as a high Ki. Regarding `Clc1ccc2c(c1)C(N1CCN(Cc3ccc4c(c3)OCO4)CC1)=Nc1cc(Cl)c(Cl)cc1N2` [2,7,8-trichloro-11-(4-piperonyl-1-piperazinyl)-5H-dibenzo[b,e][1,4]diazepine], in assay [1], the pKi is 6.83. For the same compound, in assay [2], the D2/D4 amounted to 15.7. Moreover, the D4 selectivity entry in assay [2] (compared with clozapine) is on record as “better D4 selectivity than clozapine”; in assay [2] (setting [3]), “better D4selectivity than the corresponding 4-methyl piperazine compound”.
In assay [1], `Clc1ccc2c(c1)C(N1CCN(Cc3ccc4c(c3)OCO4)CC1)=Nc1ccccc1N2` [2-Chloro-11-(4-piperonyl)-1-piperazinyl-5H-dibenzo[b,e][1,4]diazepine] showed a pKi of 7.12. Moreover, the D2/D4 in assay [2] turned out to be 7.3.
Consider `COc1ccc2c(c1)C(N1CCN(Cc3ccc4c(c3)OCO4)CC1)=Nc1ccccc1N2` [2-methoxy-11-(4-piperonyl-1-piperazinyl)-5H-dibenzo[b,e][1,4]diazepine], for which the D4 affinity entry in assay [1] (compared with clozapine) is listed as “better D4 affinity than clozapine”. For the same compound, the “D4 affinity and selectivity” value in assay [1] (setting [3]) was “better D4 affinity and selectivity than the corresponding 4-methyl piperazine compound”. In assay [1], this compound gave a pKi of 7.82. In assay [2], the D2/D4 is given as 5.1. Moreover, the D4 selectivity entry in assay [2] (setting [3]) is listed as “better D4selectivity than the corresponding 4-methyl piperazine compound”.
In the case of `O=[N+]([O-])c1ccc2c(c1)C=C(N1CCN(Cc3ccc4c(c3)OCO4)CC1)c1ccccc1S2` [2-nitro-10-(4-piperonyl-1-piperazinyl)dibenzo[b,f]thiepine], in assay [1] (compared with clozapine), the D4 affinity entry was “better D4 affinity than clozapine”; the “D4 affinity and selectivity” value is “better D4 affinity and selectivity than clozapine”. In assay [1], the pKi is 7.82. Further, the D2/D4 in assay [2] stood at 281. Also, in assay [2] (compared with clozapine), the D4 selectivity entry was “better D4 selectivity than clozapine”. Also, in assay [2] (setting [3]), the D4 selectivity result is on record as “better D4selectivity than the corresponding 4-methyl piperazine compound”.
As for `FC(F)(F)c1ccc2c(c1)C(N1CCN(Cc3ccc4c(c3)OCO4)CC1)=Nc1ccccc1N2` [2-trifluoromethyl-11-(4-piperonyl-1-piperazinyl)-5H-dibenzo[b,e][1,4]diazepine], in assay [1], the pKi was 7.13. In assay [2], the D2/D4 came to 1.9. In addition, the D4 selectivity entry in assay [2] (setting [3]) is reported as “better D4selectivity than the corresponding 4-methyl piperazine compound”.
With `Clc1cccc2c1Nc1ccccc1N=C2N1CCN(Cc2ccc3c(c2)OCO3)CC1` [4-chloro-11-(4-piperonyl-1-piperazinyl)-5H-dibenzo[b,e][1,4]diazepine], in assay [1], the negative-log Ki (pKi) was 7.47. In assay [2], the D2/D4 stood at 10.6. Also, the D4 selectivity entry in assay [2] (compared with clozapine) is “better D4 selectivity than clozapine”.
The like results for `Clc1cccc2c1Oc1ccccc1N=C2N1CCN(Cc2ccc3c(c2)OCO3)CC1` [4-chloro-11-(4-piperonyl-1-piperazinyl)dibenz[b,f][1,4]oxazepine] were, in that order, 7.24, 99.2 and “better D4 selectivity than clozapine”.
The like results for `N#Cc1cccc2c1Oc1ccccc1N=C2N1CCN(Cc2ccc3c(c2)OCO3)CC1` [4-cyano-11-(4-piperonyl-1-piperazinyl)dibenz[b,f][1,4]oxazepine] were, in that order, 6.92, 82.1 and “better D4 selectivity than clozapine”.
As for `O=[N+]([O-])c1cccc2c1Oc1ccccc1N=C2N1CCN(Cc2ccc3c(c2)OCO3)CC1` [4-nitro-11-(4-piperonyl-1-piperazinyl)dibenz[b,f][1,4]oxazepine], the pKi in assay [1] was 7.61. For the same compound, the D2/D4 in assay [2] is 53.2. The D4 selectivity entry in assay [2] (compared with clozapine) is given as “better D4 selectivity than clozapine”.
`Clc1cc2c(cc1Cl)Nc1ccccc1C(N1CCN(Cc3ccc4c(c3)OCO4)CC1)=N2` [7,8-dichloro-11-(4-piperonyl-1-piperazinyl)-5H-dibenzo[b,e][1,4]diazepine] showed a pKi in assay [1] of 7.21. The D2/D4 in assay [2] came out at 27.4. The values for the D4 selectivity result in assay [2] (compared with clozapine) and in assay [2] (setting [3]) were “better D4 selectivity than clozapine” and “better D4selectivity than the corresponding 4-methyl piperazine compound”, respectively.
